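Step 1: Grow cells in 96-well plates. Step 2: Expose to compound for 48 hours at 5 concentrations. Step 3: Interpolate endpoints linearly; if unreached, use highest concentration. GI50 = concentration required for 50% inhibition of growth. TGI: concentration producing complete growth inhibition.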
Tests used:
Assay in all cases: DTP human tumour cell line panel, 48 h
786-0 renal = system: 786-0 renal
A498 renal = system: A498 renal
A549 NSCLC = system: A549 NSCLC
BT-549 breast = system: BT-549 breast
CCRF-CEM leukemia = system: CCRF-CEM leukemia
COLO 205 colon = system: COLO 205 colon
DU-145 prostate = system: DU-145 prostate
EKVX NSCLC = system: EKVX NSCLC
HCC-2998 colon = system: HCC-2998 colon
HCT-116 colon = system: HCT-116 colon
HCT-15 colon = system: HCT-15 colon
HL-60(TB) leukemia = system: HL-60(TB) leukemia
HOP-62 NSCLC = system: HOP-62 NSCLC
HOP-92 NSCLC = system: HOP-92 NSCLC
HS 578T breast = system: HS 578T breast
HT29 colon = system: HT29 colon
IGROV1 ovarian = system: IGROV1 ovarian
K-562 leukemia = system: K-562 leukemia
KM12 colon = system: KM12 colon
LOX IMVI melanoma = system: LOX IMVI melanoma
M14 melanoma = system: M14 melanoma
MALME-3M melanoma = system: MALME-3M melanoma
MCF7 breast = system: MCF7 breast
MDA-MB-231 breast = system: MDA-MB-231 breast
MDA-MB-435 = system: MDA-MB-435
MOLT-4 leukemia = system: MOLT-4 leukemia
NCI-H226 lung = system: NCI-H226 lung
NCI-H23 lung = system: NCI-H23 lung
NCI-H460 lung = system: NCI-H460 lung
NCI-H522 lung = system: NCI-H522 lung
NCI/ADR-RES ovarian = system: NCI/ADR-RES ovarian
OVCAR-3 ovarian = system: OVCAR-3 ovarian
OVCAR-4 ovarian = system: OVCAR-4 ovarian
OVCAR-5 ovarian = system: OVCAR-5 ovarian
OVCAR-8 ovarian = system: OVCAR-8 ovarian
PC-3 prostate = system: PC-3 prostate
RPMI-8226 leukemia = system: RPMI-8226 leukemia
RXF 393 renal = system: RXF 393 renal
SF-268 CNS = system: SF-268 CNS
SF-295 CNS = system: SF-295 CNS
SF-539 CNS = system: SF-539 CNS
SK-MEL-2 melanoma = system: SK-MEL-2 melanoma
SK-MEL-5 melanoma = system: SK-MEL-5 melanoma
SK-OV-3 ovarian = system: SK-OV-3 ovarian
SN12C renal = system: SN12C renal
SNB-19 CNS = system: SNB-19 CNS
SNB-75 CNS = system: SNB-75 CNS
SR leukemia = system: SR leukemia
SW-620 colon = system: SW-620 colon
T-47D breast = system: T-47D breast
TK-10 renal = system: TK-10 renal
U251 CNS = system: U251 CNS
UACC-257 melanoma = system: UACC-257 melanoma
UACC-62 melanoma = system: UACC-62 melanoma
UO-31 renal = system: UO-31 renal

Structure (SMILES): Nc1c2c(c(O)c3c1=C(CO)C=N3)=NCCS2=O (stereo not given)
- GI50 (786-0 renal): 1980 nM
- TGI (786-0 renal): 4520 nM
- GI50 (A498 renal): 12200 nM
- TGI (A498 renal): 25300 nM
- GI50 (A549 NSCLC): 1720 nM
- TGI (A549 NSCLC): 3550 nM
- GI50 (BT-549 breast): 1690 nM
- TGI (BT-549 breast): 3100 nM
- GI50 (CCRF-CEM leukemia): 1650 nM
- TGI (CCRF-CEM leukemia): 13200 nM
- GI50 (COLO 205 colon): 1710 nM
- TGI (COLO 205 colon): 3520 nM
- GI50 (DU-145 prostate): 1540 nM
- TGI (DU-145 prostate): 2870 nM
- GI50 (EKVX NSCLC): 2510 nM
- TGI (EKVX NSCLC): 7510 nM
- GI50 (HCC-2998 colon): 1210 nM
- TGI (HCC-2998 colon): 2810 nM
- GI50 (HCT-116 colon): 2250 nM
- TGI (HCT-116 colon): 4950 nM
- GI50 (HCT-15 colon): 2990 nM
- TGI (HCT-15 colon): 10600 nM
- GI50 (HL-60(TB) leukemia): 1940 nM
- TGI (HL-60(TB) leukemia): 4500 nM
- GI50 (HOP-62 NSCLC): 1860 nM
- TGI (HOP-62 NSCLC): 3380 nM
- GI50 (HOP-92 NSCLC): 2670 nM
- TGI (HOP-92 NSCLC): 5460 nM
- GI50 (HS 578T breast): 2780 nM
- TGI (HS 578T breast): 7900 nM
- GI50 (HT29 colon): 1780 nM
- TGI (HT29 colon): 4460 nM
- GI50 (IGROV1 ovarian): 1900 nM
- TGI (IGROV1 ovarian): 4290 nM
- GI50 (K-562 leukemia): 2810 nM
- TGI (K-562 leukemia): 8070 nM
- GI50 (KM12 colon): 1700 nM
- TGI (KM12 colon): 10600 nM
- GI50 (LOX IMVI melanoma): 1580 nM
- TGI (LOX IMVI melanoma): 4030 nM
- GI50 (M14 melanoma): 1590 nM
- TGI (M14 melanoma): 3090 nM
- GI50 (MALME-3M melanoma): 253 nM
- TGI (MALME-3M melanoma): 739 nM
- GI50 (MCF7 breast): 630 nM
- TGI (MCF7 breast): 2830 nM
- GI50 (MDA-MB-231 breast): 2820 nM
- TGI (MDA-MB-231 breast): 9690 nM
- GI50 (MDA-MB-435): 1860 nM
- TGI (MDA-MB-435): 3410 nM
- GI50 (MOLT-4 leukemia): 1240 nM
- TGI (MOLT-4 leukemia): 4220 nM
- GI50 (NCI-H226 lung): 1790 nM
- TGI (NCI-H226 lung): 4170 nM
- GI50 (NCI-H23 lung): 615 nM
- TGI (NCI-H23 lung): 5640 nM
- GI50 (NCI-H460 lung): 649 nM
- TGI (NCI-H460 lung): 2310 nM
- GI50 (NCI-H522 lung): 1370 nM
- TGI (NCI-H522 lung): 3300 nM
- GI50 (NCI/ADR-RES ovarian): 2510 nM
- TGI (NCI/ADR-RES ovarian): 8990 nM
- GI50 (OVCAR-3 ovarian): 280 nM
- TGI (OVCAR-3 ovarian): 986 nM
- GI50 (OVCAR-4 ovarian): 312 nM
- TGI (OVCAR-4 ovarian): 1220 nM
- GI50 (OVCAR-5 ovarian): 1660 nM
- TGI (OVCAR-5 ovarian): 3910 nM
- GI50 (OVCAR-8 ovarian): 1990 nM
- TGI (OVCAR-8 ovarian): 4780 nM
- GI50 (PC-3 prostate): 2190 nM
- TGI (PC-3 prostate): 6130 nM
- GI50 (RPMI-8226 leukemia): 3290 nM
- TGI (RPMI-8226 leukemia): 13500 nM
- GI50 (RXF 393 renal): 3840 nM
- TGI (RXF 393 renal): 17500 nM
- GI50 (SF-268 CNS): 1240 nM
- TGI (SF-268 CNS): 3270 nM
- GI50 (SF-295 CNS): 2120 nM
- TGI (SF-295 CNS): 4120 nM
- GI50 (SF-539 CNS): 1650 nM
- TGI (SF-539 CNS): 3060 nM
- GI50 (SK-MEL-2 melanoma): 1450 nM
- TGI (SK-MEL-2 melanoma): 3800 nM
- GI50 (SK-MEL-5 melanoma): 1130 nM
- TGI (SK-MEL-5 melanoma): 2360 nM
- GI50 (SK-OV-3 ovarian): 3110 nM
- TGI (SK-OV-3 ovarian): 10900 nM
- GI50 (SN12C renal): 1660 nM
- TGI (SN12C renal): 3570 nM
- GI50 (SNB-19 CNS): 1590 nM
- TGI (SNB-19 CNS): 3070 nM
- GI50 (SNB-75 CNS): 1740 nM
- TGI (SNB-75 CNS): 3180 nM
- GI50 (SR leukemia): 1760 nM
- TGI (SR leukemia): 9330 nM
- GI50 (SW-620 colon): 2100 nM
- TGI (SW-620 colon): 4220 nM
- GI50 (T-47D breast): 688 nM
- TGI (T-47D breast): 2680 nM
- GI50 (TK-10 renal): 17500 nM
- TGI (TK-10 renal): 31800 nM
- GI50 (U251 CNS): 1780 nM
- TGI (U251 CNS): 3260 nM
- GI50 (UACC-257 melanoma): 1620 nM
- TGI (UACC-257 melanoma): 3140 nM
- GI50 (UACC-62 melanoma): 1710 nM
- TGI (UACC-62 melanoma): 3390 nM
- GI50 (UO-31 renal): 1680 nM
- TGI (UO-31 renal): 3500 nM
